Test results from patent US20070202547A1, “Methods For Detecting Substances Which Bind To The Amyloid Precursor Protein Or Beta Amyloid Fragments, And Binding Compounds” (priority 2004, published 2007).
pIC50: −log10 of the molar value.

Key:
BACE2 [1] = target: T1, BACE2 (Homo sapiens, UniProt P05067, A673V/D672E/K670N/M671F); assay: BACE2 cleavage of APP at the beta-secretase cleavage site (ALPHA); format: biochemical; settings: MBP-biotinylated APP fusion protein with NFEV site, pH 4.5, 30 minutes
T1 construct: IC50, BACE2 cleavage of APP at the beta-secretase cleavage site; other: MBP-biotinylated APP fusion protein with NFEV s; activity against BACE2 cleavage of APP at the beta-secretase position; other: result in words; biotin label
Experimental: (§1) The effect of Examples 1-4 on cleavage of APP at the beta-secretase cleavage site was assayed as follows:
(§2) • 25 μL 0.2 M Sodium Acetate, pH 4.5 • 10 μL 10× protease inhibitor cocktail (Roche, cat # 1836153) • 10 μL Bovine Serum Albumin (1 mg/mL solution) • 4 μL 5% CHAPS • 1 μL EDTA (150 mM, pH 4.5) • 2 μL DF • 4 μL MBP(Maltose binding protein)—biotininylated APP fusion protein containing the NFEV BACE cleavage site (bacterially expressed, 10 μM solution) • 1 μL DMSO or compound dissolved in DMSO • 2 μL BACE2 (CHO cell expressed protein, 250 nM) • 41 μL distilled water The reactions were incubated at 37° C. for 30 minutes, and were then quenched with 4 μL 1 M TrisHCl, pH 8.0. Detection of MBP Biotin APP(NF) Cleavage Product using ALPHA ALPHA Assay Mix was Prepared as Follows: • 20 μL Streptavidin Donor Beads (from AlphaScreen General IgG (Protein A) Detection Kit Perkin Elmer Life Sciences); 10,000 pts (Part Number 6760617M) • 20 μL Protein A Acceptor beads (from AlphaScreen General IgG (Protein A) Detection Kit Perkin Elmer Life Sciences); 10,000 pts (Part Number 6760617M) • 3.7 μL Affinity purified anti-NF antibody (203 μg/mL) (described in WO 02/094985) • 4.5 mL 0.1% BSA in PBS • 4 μL of quenched reaction mixture was combined with 46 μL of the assay mix. The reactions were incubated at room temperature overnight and read using the ALPHAQuest plate reader.

BACE2 [2] = target: T2, BACE2 (Homo sapiens, UniProt P05067, K670N/M671F/D672E/A673V); assay: as above; format: biochemical; settings: result in words
T2 construct: IC50, BACE2 cleavage of APP at the beta-secretase cleavage site; other: MBP-biotinylated APP fusion protein with NFEV s; activity against BACE2 cleavage of APP at the beta-secretase position; other: result in words; biotin label
Experimental: as §1, §2

EV-amyloid = target: T3, EV-amyloid (Homo sapiens, UniProt P05067, A673V/D672E); assay: Antibody binding to EV-amyloid, ALPHA sandwich assay; settings: 37° C., 1 hour; G2-10 and anti-NH2-EVEFR antibodies
T3 construct: An Aβ variant peptide similar to Aβ 1-40
Text: Compounds interacting with secretase or antibody binding to the Aβ domain of APP (or an APP variant) nay also be expected to interact with Aβ or related amyloidogenic peptides. An Aβ variant peptide similar to Aβ 1-40, but with Glu and Val replacing the N-terminal two amino acids (hereafter referred to as “EV-amyloid”), as described in WO 02/094985 and US 2003/0200555 A1, was used to assess interactions between benzofurans and amyloid peptide. As with full length APP variant in Example 5, masking of antibody binding sites was used to assay the potential interactions.
The assay was carried out as follows:
• 1. A master mix of EV-amyloid peptide in binding buffer was made as follows: 10650 μL 0.1% bovine serum albumin in phosphate buffered saline, 1200 μL 10× Protease Inhibitor cocktail (Roche, cat # 1836153), 30 μL EV amyloid peptide (4 μM in DMSO). • 2. […] Interaction between EV amyloid and antibody was assessed by quantification of the EV amyloid peptide by antibody sandwich assay using ALPHA detection. • 7. […]
The solutions were incubated at room temperature for 1 hour prior to addition to the EV-amyloid binding reaction. • 8. […] The plate was incubated overnight, in the dark, at room temperature, and antibody binding to EV-amyloid was detected via ALPHA Quest.

Structure (SMILES)	pIC50 (BACE2 [1])	activity against BACE2 cleavage of APP at the beta-secretase position (BACE2 [2])	inhibition of antibody binding to EV amyloid (EV-amyloid)
O=C(O)COc1cc2c(cc1CCCOc1ccccc1)OC(CCc1ccccc1)C2 (stereo not drawn) [Example 1, {[6-(3-phenoxypropyl)-2-(2-phenylethyl)-2,3-dihydro-1-benzofuran-5-yl]oxy} acetic acid]	5.05	capable of inhibiting BACE2 cleavage of APP at the beta-secretase position with similar effectiveness to their inhibition of BACE1 cleavage at the same site	approximately 40%
O=C(O)COc1cc2c(cc1CCCOc1ccccc1Cl)OC(CCc1ccccc1)C2 (stereo not drawn) [Example 2, {[6-[3-(2chlorophenoxy)propyl)-2-(2-phenylethyl)-2,3-dihydro-1-benzofuran-5-yl]oxy} acetic]	5.40	capable of inhibiting BACE2 cleavage of APP at the beta-secretase position with similar effectiveness to their inhibition of BACE1 cleavage at the same site	approximately 40%
